Paper PMC5625157, “Lack of clinically important PK interaction between coformulated ledipasvir/sofosbuvir and rilpivirine/emtricitabine/tenofovir alafenamide” (Pharmacology Research & Perspectives, 2017)
Where two headings read alike, the source gives them in different places.

Tests used:
[1] = in vivo; for C max / T max / t 1/2: human
[2] = Phase 1 crossover drug-drug interaction study, plasma pharmacokinetics by HPLC-MS/MS, non-compartmental analysis; details: for effect of coadministered LDV/SOF on exposure (C max, AUC tau): LDV/SOF + R/F/TAF vs R/F/TAF; for effect of coadministered LDV/SOF on exposure (C max, AUC tau) / effect of coadministered R/F/TAF on exposure (C max, AUC tau): result in words; for C tau / AUC / Cmax / AUC(0-t): mean (%CV); for AUC / Cmax / Tmax / half-life / AUC(0-t): human; for AUC: AUCtau, healthy subjects, fed, multiple dose; for Cmax: C max; for Tmax: T max; for AUC(0-t): AUClast; for effect of coadministered R/F/TAF on exposure (C max, AUC tau): LDV/SOF + R/F/TAF vs LDV/SOF;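 for all read-outs here: blood sampled at steady state on final dosing day, predose through 24 h after dose, study drug given shortly after standardized breakfast, with isotopically labeled internal standards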
[3] = cited from earlier work
[4] = parameters: method as in German et al. 2014; details: ref German et al. 2014, cited from earlier work
clinical = details: human, in vivo; for AUC: AUCtau, healthy subjects, fed, multiple dose; for AUC / Cmax: plasma, mean (%CV); for Cmax: C max; for half-life: median (first quartile, third quartile)
[5] = Reference: R/F/TAF (N = 42), plasma
[6] = Test: LDV/SOF + R/F/TAF (N = 42), plasma
[7] = plasma, oral, Reference: R/F/TAF (N = 42), plasma
[8] = plasma, oral, Test: LDV/SOF + R/F/TAF (N = 42), plasma
[9] = plasma, oral, t 1/2, Reference: R/F/TAF (N = 42), median (first quartile, third quartile)
[10] = plasma, oral, t 1/2, Test: LDV/SOF + R/F/TAF (N = 42), median (first quartile, third quartile)
[11] = test LDV/SOF + R/F/TAF vs reference R/F/TAF
[12] = in vivo, Reference: R/F/TAF (N = 42), plasma
[13] = in vivo, Test: LDV/SOF + R/F/TAF (N = 42), plasma
[14] = Test: LDV/SOF + R/F/TAF (N = 42)
[15] = t 1/2, Reference: LDV/SOF (N = 41)
[16] = t 1/2, Test: LDV/SOF + R/F/TAF (N = 42)
[17] = Reference: LDV/SOF (N = 41), median (first quartile, third quartile)
[18] = test LDV/SOF + R/F/TAF vs reference LDV/SOF

SMILES: C[C@H](NP(=O)(O)OC[C@H]1O[C@@H](n2ccc(=O)[nH]c2=O)[C@](C)(F)[C@@H]1O)C(=O)O [GS‐566500]
- C max [1]: 510 (20) ng/mL
- T max [1]: 3.0 (2.0, 4.0) h
- t 1/2 [1]: 2.2 (2.0, 2.5) h

SMILES: C[C@@]1(F)[C@H](O)[C@@H](CO)O[C@H]1n1ccc(=O)[nH]c1=O [GS‐331007]
- C max [1]: 884 (14) ng/mL
- T max [1]: 4.5 (4.0, 4.5) h
- t 1/2 [1]: 16.7 (13.8, 21.9) h
- C tau [1]: 340 (16) ng/mL

SMILES: Nc1nc(=O)n([C@@H]2CS[C@H](CO)O2)cc1F [FTC, emtricitabine]
- effect of coadministered LDV/SOF on exposure (C max, AUC tau) [2]: no effect
- C tau [2, 5]: 88 (28) ng/mL
- C tau [2, 6]: 89 (25) ng/mL
- AUC [2, 7]: 10800 ng·h/mL
- AUC [2, 8]: 10800 ng·h/mL
- Cmax [2, 7]: 1710 ng/mL
- Cmax [2, 8]: 1650 ng/mL
- Tmax ([2]; plasma, oral, Reference: R/F/TAF (N = 42), median (first quartile, third quartile)): 2.5 h
- Tmax ([2]; plasma, oral, Test: LDV/SOF + R/F/TAF (N = 42), median (first quartile, third quartile)): 3 h
- half-life [2, 9]: 6.5 h
- half-life [2, 10]: 5.1 h
- GLSM ratio (test/reference) of AUCtau [2, 11]: 100%
- GLSM ratio (test/reference) of C max [2, 11]: 97%
- GLSM ratio (test/reference) of C tau [2, 11]: 102%

SMILES: CC(C)OC(=O)[C@H](C)N[P@](=O)(CO[C@H](C)Cn1cnc2c(N)ncnc21)Oc1ccccc1 [TAF, tenofovir alafenamide]
- lower plasma tenofovir exposure compared to TDF 300 mg ([3]; TAF 25 mg vs TDF 300 mg, reference not given): ~ 90%
- less plasma TFV exposures than TDF ([3]; TAF vs TDF, ref Sax et al. 2015, Zack et al. 2016, Gilead Sciences Inc, 2017b): 80–90%
- effect of coadministered LDV/SOF on exposure (C max, AUC tau) [2]: no effect
- t 1/2 ([2]; Reference: R/F/TAF (N = 42), median (first quartile, third quartile)): 0.5 (0.4, 0.6) h
- AUC(0-t) [2, 12]: 277 ng·h/mL
- AUC(0-t) [2, 13]: 362 ng·h/mL
- Cmax [2, 12]: 200 ng/mL
- Cmax [2, 13]: 205 ng/mL
- Tmax ([2]; in vivo, Reference: R/F/TAF (N = 42), median (first quartile, third quartile)): 1.5 h
- Tmax ([2]; in vivo, Test: LDV/SOF + R/F/TAF (N = 42), median (first quartile, third quartile)): 1.8 h
- GLSM ratio (test/reference) of AUClast [2, 11]: 132%
- GLSM ratio (test/reference) of C max [2, 11]: 103%

SMILES: C[C@H](Cn1cnc2c(N)ncnc21)OCP(=O)(O)O [TFV, tenofovir]
- increase in TFV exposure ([4]; R/F/TDF coadministered with LDV/SOF compared to R/F/TDF alone): 40%
- TFV exposure ([4]; R/F/TDF coadministered with LDV/SOF): 4,780 ng·h/mL
- C tau [2, 5]: 9 (25) ng/mL
- C tau [2, 6]: 17 (22) ng/mL
- AUC [2, 7]: 268 ng·h/mL
- AUC [2, 8]: 467 ng·h/mL
- Cmax [2, 7]: 16 ng/mL
- Cmax [2, 8]: 25 ng/mL
- half-life [2, 9]: 32 h
- half-life [2, 10]: 44.5 h
- GLSM ratio (test/reference) of AUCtau [2, 11]: 175%
- GLSM ratio (test/reference) of C max [2, 11]: 162%
- GLSM ratio (test/reference) of C tau [2, 11]: 185%

SMILES: COC(=O)N[C@H](C(=O)N1CC2(CC2)C[C@H]1c1ncc(-c2ccc3c(c2)C(F)(F)c2cc(-c4ccc5nc([C@@H]6[C@H]7CC[C@H](C7)N6C(=O)[C@@H](NC(=O)OC)C(C)C)[nH]c5c4)ccc2-3)[nH]1)C(C)C [LDV, ledipasvir]
- AUC (clinical; Reference: LDV/SOF (N = 41)): 11600 ng·h/mL
- AUC (clinical; [14]): 11900 ng·h/mL
- Cmax (clinical; Reference: LDV/SOF (N = 41)): 647 ng/mL
- Cmax (clinical; [14]): 658 ng/mL
- half-life (clinical; [15]): 32.6 h
- half-life (clinical; [16]): 31.3 h
- effect of coadministered R/F/TAF on exposure (C max, AUC tau) [2]: did not noticeably increase
- effect of coadministered R/F/TAF on exposure (C max, AUC tau) ([2]; listed as ledipasvir): no relevant effect
- T max [2, 17]: 4.5 (4.5, 5.0) h
- C tau ([2]; Reference: LDV/SOF (N = 41), plasma): 420 (46) ng/mL
- C tau [2, 6]: 434 (47) ng/mL
- GLSM ratio (test/reference) of AUCtau [2, 18]: 102%
- GLSM ratio (test/reference) of C max [2, 18]: 101%
- GLSM ratio (test/reference) of C tau [2, 18]: 102%

SMILES: Cc1cc(/C=C/C#N)cc(C)c1Nc1ccnc(Nc2ccc(C#N)cc2)n1 [RPV, rilpivirine]
- Tmax (clinical): 5 h
- effect of coadministered LDV/SOF on exposure (C max, AUC tau) [2]: no effect
- C tau [2, 5]: 109 (32) ng/mL
- T max ([2]; Test: LDV/SOF + R/F/TAF (N = 42), median (first quartile, third quartile)): 4.0 (4.0, 5.0) h
- C tau [2, 6]: 100 (26) ng/mL
- AUC [2, 7]: 3040 ng·h/mL
- AUC [2, 8]: 2860 ng·h/mL
- Cmax [2, 7]: 203 ng/mL
- Cmax [2, 8]: 197 ng/mL
- half-life [2, 9]: 32.8 h
- half-life [2, 10]: 30.4 h
- GLSM ratio (test/reference) of AUCtau [2, 11]: 95%
- GLSM ratio (test/reference) of C max [2, 11]: 97%
- GLSM ratio (test/reference) of C tau [2, 11]: 93%

SMILES: CC(C)OC(=O)[C@H](C)N[P@](=O)(OC[C@H]1O[C@@H](n2ccc(=O)[nH]c2=O)[C@](C)(F)[C@@H]1O)Oc1ccccc1 [SOF, sofosbuvir]
- AUC (clinical; Reference: LDV/SOF (N = 41)): 2910 ng·h/mL
- AUC (clinical; [14]): 3070 ng·h/mL
- Cmax (clinical; Reference: LDV/SOF (N = 41)): 1470 ng/mL
- Cmax (clinical; [14]): 1390 ng/mL
- half-life (clinical; [15]): 0.5 h
- half-life (clinical; [16]): 0.5 h
- effect of coadministered R/F/TAF on exposure (C max, AUC tau) [2]: did not noticeably increase
- effect of coadministered R/F/TAF on exposure (C max, AUC tau) ([2]; listed as sofosbuvir): no relevant effect
- T max [2, 17]: 2.0 (1.5, 3.0) h
- GLSM ratio (test/reference) of AUCtau [2, 18]: 105%
- GLSM ratio (test/reference) of C max [2, 18]: 96%
